Source: patent US11339163B2, “BRaf inhibitors and use thereof for treatment of cutaneous reactions” (Lutris Pharma Ltd., priority 2017, dated 2022)

What was measured:
Escherichia coli = assay: In vitro Ames test, reverse mutation assay; assay type: cell-based
BRAF (V600E) = BRAF (V600E) (Homo sapiens, UniProt P15056, V600E); assay: BRaf inhibitory activity assay; assay type: biochemical; conditions: read-out: Compound IC50 BRAF (V600E)
Description: (§1) In this assay, the BRaf inhibitory activity of the compound of formula I, where
(§2) Reactions were carried out at 10 μM ATP.

wild-type BRaf = wild-type BRaf (Homo sapiens, UniProt P15056); assay: BRaf inhibitory activity assay; assay type: biochemical; conditions: read-out: Compound IC50 BRAF
Description: as §1, §2

Salmonella typhimurium = assay: In vitro Ames test, reverse mutation assay; assay type: cell-based
GP = conditions: in vivo
[1] = BCOP study (eye irritation)
minipigs = assay: MTD Dermal Minipigs; assay type: in vivo; conditions: 5 mg/kg/day for up to 6 days
Abl(h) = Abl(h) (Homo sapiens, UniProt P00519); assay: KinaseProfiler kinase selectivity assay; assay type: biochemical
Description: (§3) All compounds were prepared to 50× final assay concentration in 100% DMSO. This working stock of the compound was added to the assay well as the first component in the reaction, followed by the remaining components. In the standard KinaseProfiler™ service, there is no pre-incubation step between the compound and the kinase prior to initiation of the reaction. The positive control wells contain all components of the reaction, except the compound of interest; however, DMSO (at a final concentration of 2%) is included in these wells to control for solvent effects. The blank wells contain all components of the reaction, with a reference inhibitor replacing the compound of interest. This abolishes kinase activity and establishes the base-line (0% kinase activity remaining).

ALK(h) = ALK(h) (Homo sapiens, UniProt Q9UM73); assay: KinaseProfiler kinase selectivity assay; assay type: biochemical
Description: as §3

Fyn(h) = Fyn(h) (Homo sapiens, UniProt P06241); assay: KinaseProfiler kinase selectivity assay; assay type: biochemical
Description: as §3

eEF-2K(h) = eEF-2K(h) (Homo sapiens, UniProt O00418); assay: KinaseProfiler kinase selectivity assay; assay type: biochemical
Description: as §3

ROCK-I(h) = ROCK-I(h) (Homo sapiens, UniProt Q13464); assay: KinaseProfiler kinase selectivity assay; assay type: biochemical
Description: as §3

CHK1(h) = CHK1(h) (Homo sapiens, UniProt O14757); assay: KinaseProfiler kinase selectivity assay; assay type: biochemical
Description: as §3

LOK(h) = LOK(h) (Homo sapiens, UniProt O94804); assay: KinaseProfiler kinase selectivity assay; assay type: biochemical
Description: as §3

MEK1(h) = MEK1(h) (Homo sapiens, UniProt Q02750); assay: KinaseProfiler kinase selectivity assay; assay type: biochemical
Description: as §3

IKKα(h) = IKKα(h) (Homo sapiens, UniProt O15111); assay: KinaseProfiler kinase selectivity assay; assay type: biochemical
Description: as §3

EphB4(h) = EphB4(h) (Homo sapiens, UniProt P54760); assay: KinaseProfiler kinase selectivity assay; assay type: biochemical
Description: as §3

MSK2(h) = MSK2(h) (Homo sapiens, UniProt O75676); assay: KinaseProfiler kinase selectivity assay; assay type: biochemical
Description: as §3

Rse(h) = Rse(h) (Homo sapiens, UniProt Q06418); assay: KinaseProfiler kinase selectivity assay; assay type: biochemical
Description: as §3

Plk3(h) = Plk3(h) (Homo sapiens, UniProt Q9H4B4); assay: KinaseProfiler kinase selectivity assay; assay type: biochemical
Description: as §3

PDGFRβ(h) = PDGFRβ(h) (Homo sapiens, UniProt P09619); assay: KinaseProfiler kinase selectivity assay; assay type: biochemical
Description: as §3

Rsk1(h) = Rsk1(h) (Homo sapiens, UniProt Q15418); assay: KinaseProfiler kinase selectivity assay; assay type: biochemical
Description: as §3

SPRK1(h) = SPRK1(h) (Homo sapiens, UniProt Q96SB4); assay: KinaseProfiler kinase selectivity assay; assay type: biochemical
Description: as §3

Mnk2(h) = Mnk2(h) (Homo sapiens, UniProt Q9HBH9); assay: KinaseProfiler kinase selectivity assay; assay type: biochemical
Description: as §3

[2] = molecular target: PI3 Kinase (p110δ/p85α)(h) (Homo sapiens, UniProt O00329); assay: KinaseProfiler kinase selectivity assay; assay type: biochemical
Description: as §3

CDK7/cyclinH/MAT1(h) = CDK7/cyclinH/MAT1(h) (Homo sapiens, UniProt P50613); assay: KinaseProfiler kinase selectivity assay; assay type: biochemical
Description: as §3

CDK6/cyclinD3(h) = CDK6/cyclinD3(h) (Homo sapiens, UniProt Q00534); assay: KinaseProfiler kinase selectivity assay; assay type: biochemical
Description: as §3

PKG1α(h) = PKG1α(h) (Homo sapiens, UniProt Q13976); assay: KinaseProfiler kinase selectivity assay; assay type: biochemical
Description: as §3

PKBα(h) = PKBα(h) (Homo sapiens, UniProt P31749); assay: KinaseProfiler kinase selectivity assay; assay type: biochemical
Description: as §3

CaMKI(h) = CaMKI(h) (Homo sapiens, UniProt Q14012); assay: KinaseProfiler kinase selectivity assay; assay type: biochemical
Description: as §3

JAK2(h) = JAK2(h) (Homo sapiens, UniProt O60674); assay: KinaseProfiler kinase selectivity assay; assay type: biochemical
Description: as §3

MKK7β(h) = MKK7β(h) (Homo sapiens, UniProt O14733); assay: KinaseProfiler kinase selectivity assay; assay type: biochemical
Description: as §3

Chain of LOK(h) (O94804 whole entry): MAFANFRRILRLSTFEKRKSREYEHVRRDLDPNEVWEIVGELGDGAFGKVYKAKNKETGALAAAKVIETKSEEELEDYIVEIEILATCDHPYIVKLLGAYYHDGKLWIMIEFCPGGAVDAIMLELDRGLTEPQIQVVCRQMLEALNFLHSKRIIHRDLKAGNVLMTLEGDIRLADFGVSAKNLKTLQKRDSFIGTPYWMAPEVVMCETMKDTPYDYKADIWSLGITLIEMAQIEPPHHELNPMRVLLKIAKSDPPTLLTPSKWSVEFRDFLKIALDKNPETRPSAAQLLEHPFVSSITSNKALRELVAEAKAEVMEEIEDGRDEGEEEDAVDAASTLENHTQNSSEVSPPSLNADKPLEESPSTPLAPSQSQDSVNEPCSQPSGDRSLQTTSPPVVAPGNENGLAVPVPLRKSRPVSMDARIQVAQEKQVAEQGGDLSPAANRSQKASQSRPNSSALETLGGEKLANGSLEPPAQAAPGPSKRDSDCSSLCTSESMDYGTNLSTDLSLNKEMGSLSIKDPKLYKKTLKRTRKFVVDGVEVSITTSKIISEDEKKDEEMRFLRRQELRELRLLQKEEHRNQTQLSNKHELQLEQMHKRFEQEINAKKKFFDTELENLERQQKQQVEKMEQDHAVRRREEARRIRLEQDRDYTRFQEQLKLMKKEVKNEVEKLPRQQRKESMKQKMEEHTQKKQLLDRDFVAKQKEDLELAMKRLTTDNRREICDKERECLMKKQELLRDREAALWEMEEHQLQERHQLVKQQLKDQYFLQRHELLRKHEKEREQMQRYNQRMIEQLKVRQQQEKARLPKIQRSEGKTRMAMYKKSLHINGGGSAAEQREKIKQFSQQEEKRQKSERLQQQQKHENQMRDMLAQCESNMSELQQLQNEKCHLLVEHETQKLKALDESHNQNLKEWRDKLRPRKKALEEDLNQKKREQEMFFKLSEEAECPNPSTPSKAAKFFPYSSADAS
Chain of Mnk2(h) (Q9HBH9 whole entry): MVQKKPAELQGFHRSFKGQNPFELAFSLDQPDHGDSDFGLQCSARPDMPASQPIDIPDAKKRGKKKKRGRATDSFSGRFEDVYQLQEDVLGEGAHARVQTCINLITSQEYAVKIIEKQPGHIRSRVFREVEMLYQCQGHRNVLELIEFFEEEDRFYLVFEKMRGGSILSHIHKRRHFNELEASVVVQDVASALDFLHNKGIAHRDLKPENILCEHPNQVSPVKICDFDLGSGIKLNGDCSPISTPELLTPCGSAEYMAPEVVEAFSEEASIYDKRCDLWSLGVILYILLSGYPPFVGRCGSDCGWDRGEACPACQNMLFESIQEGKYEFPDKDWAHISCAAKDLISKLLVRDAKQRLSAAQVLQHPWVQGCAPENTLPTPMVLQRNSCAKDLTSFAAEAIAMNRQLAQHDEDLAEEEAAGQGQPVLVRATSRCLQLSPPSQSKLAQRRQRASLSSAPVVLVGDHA
Chain of Plk3(h) (Q9H4B4 whole entry): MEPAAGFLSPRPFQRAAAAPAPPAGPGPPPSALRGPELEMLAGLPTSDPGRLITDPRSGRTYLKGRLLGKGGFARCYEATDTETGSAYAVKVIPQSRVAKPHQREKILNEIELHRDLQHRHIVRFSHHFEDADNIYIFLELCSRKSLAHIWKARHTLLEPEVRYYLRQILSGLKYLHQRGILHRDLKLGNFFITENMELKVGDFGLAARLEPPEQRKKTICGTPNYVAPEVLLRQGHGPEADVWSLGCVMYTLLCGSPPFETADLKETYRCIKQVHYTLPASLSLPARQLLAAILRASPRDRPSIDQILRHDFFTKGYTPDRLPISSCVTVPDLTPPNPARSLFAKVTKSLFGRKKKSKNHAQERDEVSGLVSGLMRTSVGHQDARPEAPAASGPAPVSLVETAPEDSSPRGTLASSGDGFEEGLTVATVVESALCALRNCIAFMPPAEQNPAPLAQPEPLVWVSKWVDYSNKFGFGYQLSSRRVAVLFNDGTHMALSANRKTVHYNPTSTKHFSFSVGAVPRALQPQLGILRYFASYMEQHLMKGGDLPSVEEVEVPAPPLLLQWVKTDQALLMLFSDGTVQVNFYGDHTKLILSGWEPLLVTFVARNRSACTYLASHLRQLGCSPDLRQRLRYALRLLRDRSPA
Chain of Fyn(h) (P06241 whole entry): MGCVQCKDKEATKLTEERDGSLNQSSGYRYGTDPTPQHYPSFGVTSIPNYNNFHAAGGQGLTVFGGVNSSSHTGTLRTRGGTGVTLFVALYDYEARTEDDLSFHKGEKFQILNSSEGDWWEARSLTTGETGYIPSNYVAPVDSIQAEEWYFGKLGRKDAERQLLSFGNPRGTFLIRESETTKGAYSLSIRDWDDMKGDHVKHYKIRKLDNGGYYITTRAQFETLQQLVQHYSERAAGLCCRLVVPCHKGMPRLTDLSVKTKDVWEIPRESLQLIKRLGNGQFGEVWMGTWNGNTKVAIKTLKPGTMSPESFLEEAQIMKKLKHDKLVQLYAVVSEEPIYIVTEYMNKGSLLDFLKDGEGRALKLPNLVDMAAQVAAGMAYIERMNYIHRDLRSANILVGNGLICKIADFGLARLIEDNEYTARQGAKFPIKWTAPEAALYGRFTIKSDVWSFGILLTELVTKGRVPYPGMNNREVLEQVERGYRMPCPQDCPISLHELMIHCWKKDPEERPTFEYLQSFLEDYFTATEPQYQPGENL
Chain of MSK2(h) (O75676 whole entry): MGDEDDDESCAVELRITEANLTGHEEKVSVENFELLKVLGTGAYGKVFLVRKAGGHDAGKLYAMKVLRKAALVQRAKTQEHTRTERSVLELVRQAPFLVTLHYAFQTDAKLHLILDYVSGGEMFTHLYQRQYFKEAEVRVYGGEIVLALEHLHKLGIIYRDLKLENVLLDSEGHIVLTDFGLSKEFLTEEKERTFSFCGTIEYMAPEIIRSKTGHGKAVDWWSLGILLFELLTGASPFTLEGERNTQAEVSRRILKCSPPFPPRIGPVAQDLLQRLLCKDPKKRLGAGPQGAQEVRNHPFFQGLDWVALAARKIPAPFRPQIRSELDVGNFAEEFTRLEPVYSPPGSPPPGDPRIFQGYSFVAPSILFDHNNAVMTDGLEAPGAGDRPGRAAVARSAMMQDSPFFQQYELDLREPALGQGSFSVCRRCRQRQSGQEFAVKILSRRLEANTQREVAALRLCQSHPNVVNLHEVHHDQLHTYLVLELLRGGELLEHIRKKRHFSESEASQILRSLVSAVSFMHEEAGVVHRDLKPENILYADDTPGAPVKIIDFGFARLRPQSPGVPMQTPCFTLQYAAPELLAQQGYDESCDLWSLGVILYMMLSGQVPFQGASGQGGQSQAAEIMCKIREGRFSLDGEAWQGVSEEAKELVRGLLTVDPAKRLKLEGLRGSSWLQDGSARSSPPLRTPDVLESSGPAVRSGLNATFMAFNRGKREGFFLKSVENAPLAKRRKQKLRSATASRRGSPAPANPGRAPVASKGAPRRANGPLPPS
Chain of PKG1α(h) (Q13976 whole entry): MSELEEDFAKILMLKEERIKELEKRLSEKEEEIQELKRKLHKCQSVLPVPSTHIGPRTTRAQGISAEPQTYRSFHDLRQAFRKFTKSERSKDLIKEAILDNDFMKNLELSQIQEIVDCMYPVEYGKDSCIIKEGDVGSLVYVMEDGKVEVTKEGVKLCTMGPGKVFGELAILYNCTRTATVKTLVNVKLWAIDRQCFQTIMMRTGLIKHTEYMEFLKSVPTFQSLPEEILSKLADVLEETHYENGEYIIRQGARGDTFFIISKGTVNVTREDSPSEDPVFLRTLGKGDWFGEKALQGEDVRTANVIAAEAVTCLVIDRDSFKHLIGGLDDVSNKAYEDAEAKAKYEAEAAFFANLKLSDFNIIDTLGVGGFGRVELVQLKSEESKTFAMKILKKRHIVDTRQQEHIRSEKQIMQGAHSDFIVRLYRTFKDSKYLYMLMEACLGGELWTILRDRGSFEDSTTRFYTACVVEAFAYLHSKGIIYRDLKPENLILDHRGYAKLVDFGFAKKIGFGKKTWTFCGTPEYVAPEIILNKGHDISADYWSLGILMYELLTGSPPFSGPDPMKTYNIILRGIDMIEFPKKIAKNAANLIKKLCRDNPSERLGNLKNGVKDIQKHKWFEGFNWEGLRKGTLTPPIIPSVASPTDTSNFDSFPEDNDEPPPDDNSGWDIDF
Chain of SPRK1(h) (Q96SB4 whole entry): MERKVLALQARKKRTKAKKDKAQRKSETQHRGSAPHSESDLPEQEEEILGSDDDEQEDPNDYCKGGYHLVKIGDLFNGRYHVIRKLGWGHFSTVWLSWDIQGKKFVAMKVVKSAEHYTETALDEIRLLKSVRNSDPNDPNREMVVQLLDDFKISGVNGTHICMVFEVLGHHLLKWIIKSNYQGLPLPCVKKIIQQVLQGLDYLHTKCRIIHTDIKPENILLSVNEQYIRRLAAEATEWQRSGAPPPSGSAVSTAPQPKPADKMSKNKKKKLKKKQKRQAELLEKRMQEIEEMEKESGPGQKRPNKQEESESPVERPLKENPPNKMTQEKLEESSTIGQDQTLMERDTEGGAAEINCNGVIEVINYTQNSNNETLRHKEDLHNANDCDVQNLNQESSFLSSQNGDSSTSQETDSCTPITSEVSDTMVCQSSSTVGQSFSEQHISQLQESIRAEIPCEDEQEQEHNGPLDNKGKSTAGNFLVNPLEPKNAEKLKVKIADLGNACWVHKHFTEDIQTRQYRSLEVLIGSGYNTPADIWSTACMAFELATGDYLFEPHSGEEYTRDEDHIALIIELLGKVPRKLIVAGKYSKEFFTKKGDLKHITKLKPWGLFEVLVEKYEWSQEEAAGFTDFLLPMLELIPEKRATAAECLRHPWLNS

Structure (SMILES): Cc1ccc2c(Nc3cccc(OC(F)(F)F)c3)nccc2c1Nc1ncccc1-c1ncnc2[nH]cnc12 [LUT014]
- mutagenicity, Escherichia coli reverse mutation assay (Escherichia coli): not mutagenic
- IC50 (BRAF (V600E)): 13.3 nM
- IC50 (wild-type BRaf): 11.7 nM
- mutagenicity, Salmonella typhimurium reverse mutation assay (Salmonella typhimurium): not mutagenic
- dermal sensitization (GP): The test article is not
- IVIS [1]: ≤ 3
- classification for eye irritation or serious eye damage [1]: no classification is required
- tolerability (minipigs): well tolerated in minipigs at
- remaining activity at 0.01 µM (Abl(h); Lut014 @ 0.01 μM): 92%
- remaining activity at 1 µM (Abl(h); Lut014 @ 1 μM): 25%
- remaining activity at 0.01 µM (ALK(h); Lut014 @ 0.01 μM): 150%
- remaining activity at 1 µM (ALK(h); Lut014 @ 1 μM): 83%
- remaining activity at 0.01 µM (Fyn(h); Lut014 @ 0.01 μM): 103%
- remaining activity at 1 µM (Fyn(h); Lut014 @ 1 μM): 95%
- remaining activity at 0.01 µM (eEF-2K(h); Lut014 @ 0.01 μM): 95%
- remaining activity at 1 µM (eEF-2K(h); Lut014 @ 1 μM): 106%
- remaining activity at 0.01 µM (ROCK-I(h); Lut014 @ 0.01 μM): 107%
- remaining activity at 1 µM (ROCK-I(h); Lut014 @ 1 μM): 107%
- remaining activity at 0.01 µM (CHK1(h); Lut014 @ 0.01 μM): 100%
- remaining activity at 1 µM (CHK1(h); Lut014 @ 1 μM): 114%
- remaining activity at 0.01 µM (LOK(h); Lut014 @ 0.01 μM): 98%
- remaining activity at 1 µM (LOK(h); Lut014 @ 1 μM): 83%
- remaining activity at 0.01 µM (MEK1(h); Lut014 @ 0.01 μM): 98%
- remaining activity at 1 µM (MEK1(h); Lut014 @ 1 μM): 105%
- remaining activity at 0.01 µM (IKKα(h); Lut014 @ 0.01 μM): 105%
- remaining activity at 1 µM (IKKα(h); Lut014 @ 1 μM): 105%
- remaining activity at 0.01 µM (EphB4(h); Lut014 @ 0.01 μM): 93%
- remaining activity at 1 µM (EphB4(h); Lut014 @ 1 μM): 38%
- remaining activity at 0.01 µM (MSK2(h); Lut014 @ 0.01 μM): 92%
- remaining activity at 1 µM (MSK2(h); Lut014 @ 1 μM): 96%
- remaining activity at 0.01 µM (Rse(h); Lut014 @ 0.01 μM): 106%
- remaining activity at 1 µM (Rse(h); Lut014 @ 1 μM): 113%
- remaining activity at 0.01 µM (Plk3(h); Lut014 @ 0.01 μM): 85%
- remaining activity at 1 µM (Plk3(h); Lut014 @ 1 μM): 87%
- remaining activity at 0.01 µM (PDGFRβ(h); Lut014 @ 0.01 μM): 98%
- remaining activity at 1 µM (PDGFRβ(h); Lut014 @ 1 μM): 103%
- remaining activity at 0.01 µM (Rsk1(h); Lut014 @ 0.01 μM): 106%
- remaining activity at 1 µM (Rsk1(h); Lut014 @ 1 μM): 112%
- remaining activity at 0.01 µM (SPRK1(h); Lut014 @ 0.01 μM): 105%
- remaining activity at 1 µM (SPRK1(h); Lut014 @ 1 μM): 100%
- remaining activity at 0.01 µM (Mnk2(h); Lut014 @ 0.01 μM): 112%
- remaining activity at 1 µM (Mnk2(h); Lut014 @ 1 μM): 107%
- remaining activity at 0.01 µM ([2]; Lut014 @ 0.01 μM): 96%
- remaining activity at 1 µM ([2]; Lut014 @ 1 μM): 94%
- remaining activity at 0.01 µM (CDK7/cyclinH/MAT1(h); Lut014 @ 0.01 μM): 105%
- remaining activity at 1 µM (CDK7/cyclinH/MAT1(h); Lut014 @ 1 μM): 109%
- remaining activity at 0.01 µM (CDK6/cyclinD3(h); Lut014 @ 0.01 μM): 100%
- remaining activity at 1 µM (CDK6/cyclinD3(h); Lut014 @ 1 μM): 103%
- remaining activity at 0.01 µM (PKG1α(h); Lut014 @ 0.01 μM): 99%
- remaining activity at 1 µM (PKG1α(h); Lut014 @ 1 μM): 111%
- remaining activity at 0.01 µM (PKBα(h); Lut014 @ 0.01 μM): 102%
- remaining activity at 1 µM (PKBα(h); Lut014 @ 1 μM): 105%
- remaining activity at 0.01 µM (CaMKI(h); Lut014 @ 0.01 μM): 101%
- remaining activity at 1 µM (CaMKI(h); Lut014 @ 1 μM): 97%
- remaining activity at 0.01 µM (JAK2(h); Lut014 @ 0.01 μM): 126%
- remaining activity at 1 µM (JAK2(h); Lut014 @ 1 μM): 118%
- remaining activity at 0.01 µM (MKK7β(h); Lut014 @ 0.01 μM): 100%
- remaining activity at 1 µM (MKK7β(h); Lut014 @ 1 μM): 103%
